# pEC50: −log10 of the molar value.
# Molecular target: Neuronal acetylcholine receptor subunit alpha-7 (Homo sapiens, UniProt P36544)
# Test: Positive allosteric modulation of recombinant human AChR alpha7 expressed in HEK cells co-expressing RIC-3 at -60 mV holding potential treated for 58 sec followed by acetylcholine applied for 1 sec measured potentiation effect by automated patch clamp electrophysiological method
# Assay type: cell-based
# Sequence of Neuronal acetylcholine receptor subunit alpha-7 (P36544 whole entry): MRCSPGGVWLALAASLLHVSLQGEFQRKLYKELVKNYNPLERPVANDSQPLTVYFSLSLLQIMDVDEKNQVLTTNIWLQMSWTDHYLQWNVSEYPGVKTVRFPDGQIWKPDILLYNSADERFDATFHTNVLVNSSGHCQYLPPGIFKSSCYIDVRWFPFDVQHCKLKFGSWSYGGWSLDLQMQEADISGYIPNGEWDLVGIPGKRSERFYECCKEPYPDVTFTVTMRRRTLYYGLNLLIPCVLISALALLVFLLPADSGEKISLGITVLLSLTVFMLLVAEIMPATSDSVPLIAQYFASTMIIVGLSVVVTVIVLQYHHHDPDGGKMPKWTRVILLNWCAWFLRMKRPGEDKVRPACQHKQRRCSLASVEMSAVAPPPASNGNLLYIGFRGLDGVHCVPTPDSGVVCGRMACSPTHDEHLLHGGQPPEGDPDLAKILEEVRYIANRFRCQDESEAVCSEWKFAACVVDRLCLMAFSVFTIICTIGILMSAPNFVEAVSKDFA
row,pEC50,SMILES
1,≥ 7.00,NS(=O)(=O)N1CCC2(CC1)C[C@H]2COc1cccc(NCC(F)(F)F)n1
2,≥ 7.00,NS(=O)(=O)N1CCC2(CC1)C(COc1ccnc(OC(F)F)c1)C2(F)F (stereo unspecified)
3,≥ 7.00,COc1ccc(Cl)cc1NC[C@@H]1CC12CCN(S(N)(=O)=O)CC2
4,≥ 7.00,COc1ccc(Cl)cc1NC(=O)[C@@H]1C(F)(F)C12CCN(S(N)(=O)=O)CC2
5,≥ 7.00,NS(=O)(=O)N1CCC2(CC1)C(COc1noc(-c3ccccc3)n1)C2(F)F (stereo unspecified)
6,≥ 7.00,COc1ccc(Cl)cc1SC[C@@H]1CC12CCN(S(N)(=O)=O)CC2
